Assay results published in PubChem BioAssay AID489035 (Sanford-Burnham Center for Chemical Genomics, 2010).
Activity calls are given as the source filed them. The rule behind the calls is not given here.

What follows are molecules tested on Jurkat NF-kB reporter, TCR-induced, luciferase luminescence (assay: inhibitors of TCR-driven NF-kB activation, dose response, Jurkat cells, luminescence (AID 489035)).

SMILES | IC50
Oc1ccc2ccccc2c1/C=N/Nc1nnc(-c2ncc[nH]2)c2ccccc12 | > 80 µM (inactive)
Cc1ccc(/C=N/NC(=O)c2c(C)nc3ccc(Br)cn23)cc1 | > 80 µM (inactive)
CCN1/C(=C/c2ccc3ccccc3[n+]2CC)C=Cc2ccccc21 | 11.2 µM
O=C(Sc1cccc2cccnc12)c1ccc(F)cc1 | 0.99 µM
COc1ccc(CNC(=O)c2c(C)oc3c2C(=O)c2ccccc2C3=O)cc1 | 8.08 µM
O=C(NCCOc1ccccc1)c1cc([N+](=O)[O-])ccc1N1CCOCC1 | > 80 µM (inactive)
O=C(c1cc(-c2ccncc2)nc2c(Cl)cccc12)N1CCN(c2ccccc2F)CC1 | > 80 µM (inactive)
COc1ccc2c(c1)/C(=C/c1cnc[nH]1)C(=O)N2 | 6.51 µM
O=C(Nc1ccc(N2CCOCC2)cc1)c1ccc(Cl)c(S(=O)(=O)N2CCCCC2)c1 | > 80 µM (inactive)
C=C(C)COc1ccc(-c2n[nH]c(C)c2-c2ccc(OC)c(OC)c2)c(O)c1 | 21.1 µM (inactive)
CCOc1ccccc1C(=O)Nc1ccc2nc(N3CCN(c4ncccn4)CC3)cc(C)c2c1 | 4.28 µM
Cc1ccc(COC(=O)c2cc([N+](=O)[O-])ccc2N2CCOCC2)cc1 | 49 µM (inactive)
Cc1ccc(N/C(N)=N/c2nc(CSc3nnc(C)s3)cc(=O)[nH]2)c(C)c1 | 42.1 µM (inactive)
Cc1oc2c(c1C(=O)NCc1cccnc1)C(=O)c1ccccc1C2=O | 1.1 µM
Cc1ccc2nc(SCC(=O)Nc3cc(C(F)(F)F)ccc3N3CCOCC3)[nH]c2c1 | > 80 µM (inactive)
O=C(N/N=C(\c1ccccc1)c1cccnc1)c1cccc(F)c1 | 5.3 µM
Cc1cc(-c2ccc(C)c(S(=O)(=O)N3CCN(c4ccc([N+](=O)[O-])cc4)CC3)c2)on1 | > 80 µM (inactive)
Cc1nc2ccccc2c2c1CC(C(C)(Cl)Br)O2 (centres undefined) | > 80 µM (inactive)
Nc1nc(-c2ccccc2)cc(N2CCCCC2)n1 | > 80 µM (inactive)
Cc1ccc(C(=O)Nc2cnc3ccccc3c2)cc1 | 0.37 µM
CCN(c1ccccc1)S(=O)(=O)c1ccc(C(=O)NC2CCN(Cc3ccccc3)CC2)cc1 | 33 µM (inactive)
Cc1ccc(/C=N/NC(=O)C2COc3ccccc3O2)s1 (centres undefined) | > 80 µM (inactive)
COc1ccc(C)c(Cn2c(-c3nonc3N)nc3ccccc32)c1 | > 80 µM (inactive)
CCOC(=O)c1c(C)[nH]c(C(=O)N/N=C/c2ccc(Br)cc2)c1C | 9.36 µM
COc1cc(C(=O)Nc2ccc3c(c2)CCN3C(C)=O)cc(OC)c1OC | > 80 µM (inactive)

SMILES | IC50
Cn1nc(-c2ccccn2)nc2c(=O)n(C)c(=O)nc1-2 | 12.4 µM
COc1ccccc1NC(=O)Cn1nnc(C(=O)NCc2cccs2)c1N | > 80 µM (inactive)
C=C(C=O)C[C@@H]1C[C@H](O)C2OC3C[C@]4(C)OC5/C=C\CC6OC7C(CC=CCC6OC5CCCC4OC3CC2O1)OC1CC2OC3CC(=O)OC3C[C@@H](C)C[C@@]2(C)OC1C[C@@H]7C (some centres undefined) | 1.39 µM
Cc1ccc(-c2cc3c(N=O)c4ccccc4c-3n[nH]2)cc1 | 1.65 µM
CCCCOc1ccc(Br)cc1/C(C)=N/NC1=NCCN1 | 5.51 µM
O=C(Nc1ccc(S(=O)(=O)Nc2ccccc2)cc1)c1ccc(CN2CCOCC2)cc1 | 29.5 µM (inactive)
CCOc1cccc(-c2nnc3n2N=C(c2cc(OC)ccc2OC)CS3)c1 | > 80 µM (inactive)
C[C@]12CC[C@@H]3c4cc(O)c(O)cc4CC[C@H]3[C@@H]1CC[C@@H]2O | 4.76 µM
Cn1cc(/C=N/n2cnc3scc(-c4ccc(Cl)cc4)c3c2=O)c2ccccc21 | > 80 µM (inactive)
CCCOC(=O)c1[nH]c2c(c1C)C(=O)CC(c1cccs1)C2 (centres undefined) | 32.1 µM (inactive)
Cc1cccc(OCCNC(=O)c2ccc(Cl)c(S(=O)(=O)NCc3cccnc3)c2)c1 | > 80 µM (inactive)
CN(C)c1ccc(-[n+]2c(-c3ccccc3)cc(-c3ccccc3)cc2-c2ccccc2)cc1 | 7.96 µM
COCCCNC(=O)C(=O)Nc1ccc2c(c1)N(S(=O)(=O)c1cccs1)CCC2 | 5.46 µM
c1ccc(-c2noc(-c3ccc4c(c3)OCO4)n2)nc1 | 0.55 µM
CCN(CC)c1ccc(-c2nn3c(-c4ccccc4OC)nnc3s2)cc1 | 20.4 µM (inactive)
CCC(=O)N1c2ccc(S(=O)(=O)N3CCN(c4ccc([N+](=O)[O-])cc4)CC3)cc2CC1C (centres undefined) | > 80 µM (inactive)
O=C1c2c(O)ccc(O)c2C(=O)c2c(NCCNCCO)ccc(NCCNCCO)c21 | 2.23 µM
O=C(Nc1ccc([N+](=O)[O-])cc1)Nc1ccon1 | > 80 µM (inactive)
Cc1nnc(N/N=C/c2ccccn2)[nH]c1=O | 1.18 µM
CC(C)CC[n+]1ccccc1/C=C/c1ccc(N(C)C)cc1 | > 80 µM (inactive)
CCOCCCNC(=O)c1ccc2c(c1)N=C(CC)c1cc(Br)ccc1S2 | 5.67 µM
COC(=O)CCC(=O)NC(=S)Nc1sc(C)c(C)c1C(N)=O | > 80 µM (inactive)
COc1cc2nc(CN3CC=C(c4ccccc4)CC3)[nH]c(=O)c2cc1OC | > 80 µM (inactive)
COc1ccc(Nc2nc(-c3sc(C)nc3C)cs2)cc1 | 38.8 µM (inactive)
